Data on eight compounds can be found in patent US12479840B2, “HMG-CoA reductase degradation inducing compound” (Uppthera, priority 2020, dated 2025).

The target in the assay is T1, HMG-CoA reductase (Homo sapiens, UniProt P04035).
T1 construct: endogenous in cells; host or cells: HepG2 (Korea Cell Line Bank)
T1 sequence (P04035 1-888): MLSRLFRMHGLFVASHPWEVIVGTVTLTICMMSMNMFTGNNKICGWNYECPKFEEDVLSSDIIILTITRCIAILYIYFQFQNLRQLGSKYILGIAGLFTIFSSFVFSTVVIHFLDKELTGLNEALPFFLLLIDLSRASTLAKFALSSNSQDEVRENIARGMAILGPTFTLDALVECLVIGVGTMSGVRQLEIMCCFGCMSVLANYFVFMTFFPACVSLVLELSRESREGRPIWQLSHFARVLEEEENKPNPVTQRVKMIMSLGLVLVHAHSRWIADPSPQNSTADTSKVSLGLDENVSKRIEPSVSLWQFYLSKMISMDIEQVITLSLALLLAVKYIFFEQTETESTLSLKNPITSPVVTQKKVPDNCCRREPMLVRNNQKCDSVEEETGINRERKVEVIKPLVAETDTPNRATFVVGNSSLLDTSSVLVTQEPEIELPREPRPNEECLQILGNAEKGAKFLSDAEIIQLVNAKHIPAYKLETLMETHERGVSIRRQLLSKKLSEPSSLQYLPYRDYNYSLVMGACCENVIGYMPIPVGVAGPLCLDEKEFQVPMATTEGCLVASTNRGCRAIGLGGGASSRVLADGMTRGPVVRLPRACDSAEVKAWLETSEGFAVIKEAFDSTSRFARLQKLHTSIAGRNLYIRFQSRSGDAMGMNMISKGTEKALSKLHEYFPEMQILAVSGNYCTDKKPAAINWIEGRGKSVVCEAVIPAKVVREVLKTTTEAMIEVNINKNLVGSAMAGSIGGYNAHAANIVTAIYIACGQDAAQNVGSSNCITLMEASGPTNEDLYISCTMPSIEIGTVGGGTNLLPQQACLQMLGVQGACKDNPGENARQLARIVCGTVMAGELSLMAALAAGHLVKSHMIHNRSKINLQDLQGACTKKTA
As to the kind of experiment: HMG-CoA reductase (HMGCR) degradation in HepG2 cells by western blotting. Particulars: treated for 18 hours, ratio of HMG-CoA reductase to GAPDH, read-out: DC50. It counts as cell-based. As to the method: HepG2, a human liver cancer cell line, was purchased from the Korea Cell Line Bank (KCLB), Seoul, Korea. The passage in cell culture was maintained at P105 to P110.
The compounds of the present invention were completely dissolved in DMSO and used in the experiment. 2×10^5 cells were seeded for each well of a 12-well plate (SPL), and the cells were cultured in the culture medium in a total volume of 2 ml. Each of the compounds of the present invention and comparative compounds was diluted three folds from the highest concentration of 3 μM to the lowest concentration in 10 points and treated for 18 hours.
Each of the compounds the present invention and comparative compounds was diluted three folds from the highest concentration of 3 μM to the lowest concentration of […] in 10 points and was treated for 18 hours.
For SDS-PAGE and Western blotting, 1×RIPA lysis buffer (Rockland, Cat. No. MB-030-0050; Lot no. 39751), 100× Protease Inhibitor Cocktail (Quartett, Cat. No. PPI1015; Lot no. PCO50038424), Pierce™ BCA protein assay kit (ThermoScientific, Cat. No. 23225; Lot no. UC276876), albumin standard (ThermoScientific, Cat. No. 23209; Lot no. UB269561), 4-15% Mini-PROTEAN TGX stain-free gel (Bio-rad, Cat. No. 4568085; Lot no. L007041B), 10× Tris/Glycine/SDS buffer (Bio-rad, Cat. No. 1610732; Lot no. 10000044375B); 10×TBS (Bio-rad, Cat. No. 1706435; Lot no. 1000045140B), 10% Tween 20 (Cat. No. 1610781; Lot no. L004152B), Color protein standard broad range (NEB, Cat. No. P7719S; Lot no. 10040349), 4× Laemmli sample buffer (Bio-rad, Cat. No. 1610747; Lot no. L004133B), β-mercaptoethanol (Sigma-Aldrich, Cat. No. M3148; Lot no. 60-24-2), SuperBlock™ T20 (TBS) blocking buffer (ThermoScientific, Cat. No. 37536; Lot no. UC282578), 1M sodium azide solution (Sigma-Aldrich, Cat. No. 08591-1 mL-F; Lot no. BCBV4989), α-Rabbit pAb to Ms IgG (abcam, Cat. No. ab97046; Lot no. GR3252115-1), α-Goat pAb to Rb IgG (CST, Cat. No. 7074S; Lot no. 28), α-GAPDH (abcam, Cat. No. ab8245), α-HMGCR (GeneTex, Cat. No. GTX54088; Lot no. 821903509), ECL™ Prime western blotting reagents (GE Healthcare, Cat. No. RPN2232; Lot no. 17001655), Ponceau S solution (Sigma-Aldrich, Cat. No. P7170; Lot no. SLBV4112), Difco™ Skim milk (BD, Cat. No. 232100; Lot no. 8346795), and iBlot® 2 NC Regular stacks (Invitrogen, Cat. No. IB23001; Lot no. 2NR110619-02), were used.
For cell harvesting, the cells were first separated from the plate using trypsin and then washed with the medium and PBS. Specifically, the medium was suctioned off and washed with 1 mL of PBS, and PBS was suctioned off. The cells were treated with 0.5 mL TrypLE™ Express at 37° C. for 7 minutes to separate the cells, and then 0.5 mL of complete medium was added to collect 1 mL of cell culture solution. Then, 1 mL of the cell collection solution was centrifuged at 8,000 rpm for 120 seconds, and the supernatant was removed. After washing with 0.2 mL of PBS, the PBS was removed.
For cell lysis, a lysis buffer was added and cell debris was removed to obtain a cell lysate. Specifically, the cells were treated with 70 μL of 1×RIPA buffer containing a protease inhibitor and incubated for 30 minutes on ice. Then, the cells were centrifuged at 4° C. and 15,000 rpm for 10 minutes to obtain a cell lysate.
Then, a standard curve was obtained using the BCA assay, and the protein mass in the lysate was quantified by substituting the curve. The mixture was incubated at 37° C. for 30 minutes using 20 μL of standard or sample solution, and 200 μL of BCA or Bradford solution, and measured at 562 nm absorbance. Samples were prepared by adding 4× sample buffer so that the quantity of protein added to each well was 15 μg.
Sodium dodecyl sulfate polyacrylamide gel electrophoresis (SDS-PAGE) was performed by setting a running time of 100 minutes at 120 V on a 4-15% Mini-PROTEAN TGX stain-free gel (15 well). Transferring was performed on iBlot® 2 NC Mini stacks at P0 mode of the dry blotting system. […]
For the compound `C[C@H]1C=C2C=C[C@H](C)[C@H](CC[C@@H]3C[C@@H](O)CC(=O)O3)[C@H]2[C@@H](OC(=O)C(C)(C)CCC(=O)NCCOCCOCCOCCNc2ccccc2)C1` [Compound 1, (1S,3R,7S,8S,8aR)-8-(2-((2R,4R)-4-hydroxy-6-oxotetrahydro-2H-pyran-2-yl)ethyl)-3,7-dimethyl-1,2,3,7,8,8a-hexahydronaphthalen-1-yl 16,16-dimethyl-13-oxo-1-(phenylamino)-3,6,9-trioxa-12-azaheptadecan-17-oate], the DC50 is over 0.5 µM. Under `C[C@H]1C=C2C=C[C@H](C)[C@H](CC[C@@H]3C[C@@H](O)CC(=O)O3)[C@H]2[C@@H](OC(=O)C(C)(C)CCC(=O)NCCOCCOCCNc2cccc3c2C(=O)N(C2CCC(=O)NC2=O)C3=O)C1` (stereo partly drawn) [Compound 2, (1S,3R,7S,8S,8aR)-8-(2-((2R,4R)-4-hydroxy-6-oxotetrahydro-2H-pyran-2-yl)ethyl)-3,7-dimethyl-1,2,3,7,8,8a-hexahydronaphthalen-1-yl 5-((2-(2-(2-((2-(2,6-dioxopiperidin-3-yl)-1,3-dioxoisoindolin-4-yl)amino)ethoxy)ethoxy)ethyl)amino)-2,2-dimethyl-5-oxopentanoate] stands under 0.05 µM; under `C[C@H]1C=C2C=C[C@H](C)[C@H](CC[C@@H]3C[C@@H](O)CC(=O)O3)[C@H]2[C@@H](OC(=O)C(C)(C)CCC(=O)NCCOCCOCCOCCNc2cccc3c2C(=O)N(C2CCC(=O)NC2=O)C3=O)C1` (stereo partly drawn) [Compound 3, (1S,3R,7S,8S,8aR)-8-(2-((2R,4R)-4-hydroxy-6-oxotetrahydro-2H-pyran-2-yl)ethyl)-3,7-dimethyl-1,2,3,7,8,8a-hexahydronaphthalen-1-yl 1-((2-(2,6-dioxopiperidin-3-yl)-1,3-dioxoisoindolin-4-yl)amino)-16,16-dimethyl-13-oxo-3,6,9-trioxa-12-azaheptadecan-17-oate], under 0.05 µM; under `C[C@H]1C=C2C=C[C@H](C)[C@H](CC[C@@H]3C[C@@H](O)CC(=O)O3)[C@H]2[C@@H](OC(=O)C(C)(C)CCC(=O)NCCOCCOCCOCCOCCNc2cccc3c2C(=O)N(C2CCC(=O)NC2=O)C3=O)C1` (stereo partly drawn) [Compound 4, (1S,3R,7S,8S,8aR)-8-(2-((2R,4R)-4-hydroxy-6-oxotetrahydro-2H-pyran-2-yl)ethyl)-3,7-dimethyl-1,2,3,7,8,8a-hexahydronaphthalen-1-yl 1-((2-(2,6-dioxopiperidin-3-yl)-1,3-dioxoisoindolin-4-yl)amino)-19,19-dimethyl-16-oxo-3,6,9,12-tetraoxa-15-azaicosan-20-oate], under 0.05 µM. Under `C[C@H]1C=C2C=C[C@H](C)[C@H](CC[C@@H]3C[C@@H](O)CC(=O)O3)[C@H]2[C@@H](OC(=O)C(C)(C)CCC(=O)NCCOCCOCCOCCOCCOCCNc2cccc3c2C(=O)N(C2CCC(=O)NC2=O)C3=O)C1` (stereo partly drawn) [Compound 5, (1S,3R,7S,8S,8aR)-8-(2-((2R,4R)-4-hydroxy-6-oxotetrahydro-2H-pyran-2-yl)ethyl)-3,7-dimethyl-1,2,3,7,8,8a-hexahydronaphthalen-1-yl 1-((2-(2,6-dioxopiperidin-3-yl)-1,3-dioxoisoindolin-4-yl)amino)-22,22-dimethyl-19-oxo-3,6,9,12,15-pentaoxa-18-azatricosan-23-oate] stands under 0.05 µM. Take `C[C@H]1C=C2C=C[C@H](C)[C@H](CC[C@@H]3C[C@@H](O)CC(=O)O3)[C@H]2[C@@H](OC(=O)C(C)(C)CCC(=O)NCCOCCOCCOCCOCCOCCOCCNc2cccc3c2C(=O)N(C2CCC(=O)NC2=O)C3=O)C1` (stereo partly drawn) [Compound 6, (1S,3R,7S,8S,8aR)-8-(2-((2R,4R)-4-hydroxy-6-oxotetrahydro-2H-pyran-2-yl)ethyl)-3,7-dimethyl-1,2,3,7,8,8a-hexahydronaphthalen-1-yl 1-((2-(2,6-dioxopiperidin-3-yl)-1,3-dioxoisoindolin-4-yl)amino)-25,25-dimethyl-22-oxo-3,6,9,12,15,18-hexaoxa-21-azahexacosan-26-oate]: the DC50 is under 0.05 µM.

As for `C[C@H]1C=C2C=C[C@H](C)[C@H](CC[C@@H]3C[C@@H](O)CC(=O)O3)[C@H]2[C@@H](OC(=O)C(C)(C)CCC(=O)NCCOCCOCCOCC(=O)NCC(C)(C)C)C1` [Compound 7, (1S,3R,7S,8S,8aR)-8-(2-((2R,4R)-4-hydroxy-6-oxotetrahydro-2H-pyran-2-yl)ethyl)-3,7-dimethyl-1,2,3,7,8,8a-hexahydronaphthalen-1-yl 2,2,20,20-tetramethyl-5,17-dioxo-7,10,13-trioxa-4,16-diazahenicosan-21-oate], the 50% degradation concentration (DC50) is over 0.5 µM. For the compound `Cc1ncsc1-c1ccc(CNC(=O)[C@@H]2C[C@@H](O)CN2C(=O)[C@@H](NC(=O)COCCNC(=O)CCC(C)(C)C(=O)O[C@H]2C[C@@H](C)C=C3C=C[C@H](C)[C@H](CC[C@@H]4C[C@@H](O)CC(=O)O4)[C@H]32)C(C)(C)C)cc1` [Compound 8, (1S,3R,7S,8S,8aR)-8-(2-((2R,4R)-4-hydroxy-6-oxotetrahydro-2H-pyran-2-yl)ethyl)-3,7-dimethyl-1,2,3,7,8,8a-hexahydronaphthalen-1-yl 5-((2-(2-(((S)-1-((2S,4R)-4-hydroxy-2-((4-(4-methylthiazol-5-yl)benzyl)carbamoyl)pyrrolidin-1-yl)-3,3-dimethyl-1-oxobutan-2-yl)amino)-2-oxoethoxy)ethyl)amino)-2,2-dimethyl-5-oxopentanoate], the 50% degradation concentration (DC50) was under 0.05 µM.

In general, DC50 refers to the concentration giving 50% degradation.
